Source: patent US10405547B2, “Substituted cyclic amides as herbicides” (FMC Corporation, priority 2015, dated 2019)

How the values were obtained:
Format in all cases: in vivo
[1] = test system: barnyardgrass (Echinochloa crus-galli); assay: Test A preemergence, barnyardgrass; conditions: 0 to 100 scale (0 no effect, 100 complete control)
Summary of the method: (§1)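 Visual injury scores (0 no effect to 100 complete control) taken about 10 days after treatment, relative to untreated plants. Treatments were directed soil spray at planting for preemergence, or foliar application to one- to two-leaf plants (2-10 cm) for postemergence, with surfactant-containing formulations in loam–sand pots.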

kochia (Kochia scoparia) [2] = assay: Test A preemergence, kochia; conditions: 0 to 100 scale (0 no effect, 100 complete control)
Summary of the method: as §1

[3] = test system: ragweed (common ragweed, Ambrosia elatior); assay: Test A preemergence, ragweed; conditions: 0 to 100 scale (0 no effect, 100 complete control)
Summary of the method: as §1

[4] = test system: ryegrass, Italian (Lolium multiflorum); assay: Test A preemergence, Italian ryegrass; conditions: 0 to 100 scale (0 no effect, 100 complete control)
Summary of the method: as §1

[5] = test system: foxtail, giant (Setaria faberii); assay: Test A preemergence, giant foxtail; conditions: 0 to 100 scale (0 no effect, 100 complete control)
Summary of the method: as §1

[6] = test system: pigweed (Amaranthus retroflexus); assay: Test A preemergence, pigweed; conditions: 0 to 100 scale (0 no effect, 100 complete control)
Summary of the method: as §1

[7] = test system: barnyardgrass (Echinochloa crus-galli); assay: Test A postemergence, barnyardgrass; conditions: 0 to 100 scale (0 no effect, 100 complete control)
Summary of the method: as §1

kochia (Kochia scoparia) [8] = assay: Test A postemergence, kochia; conditions: 0 to 100 scale (0 no effect, 100 complete control)
Summary of the method: as §1

[9] = test system: ragweed (common ragweed, Ambrosia elatior); assay: Test A postemergence, ragweed; conditions: 0 to 100 scale (0 no effect, 100 complete control)
Summary of the method: as §1

[10] = test system: ryegrass, Italian (Lolium multiflorum); assay: Test A postemergence, Italian ryegrass; conditions: 0 to 100 scale (0 no effect, 100 complete control)
Summary of the method: as §1

[11] = test system: foxtail, giant (Setaria faberii); assay: Test A postemergence, giant foxtail; conditions: 0 to 100 scale (0 no effect, 100 complete control)
Summary of the method: as §1

[12] = test system: pigweed (Amaranthus retroflexus); assay: Test A postemergence, pigweed; conditions: 0 to 100 scale (0 no effect, 100 complete control)
Summary of the method: as §1

[13] = test system: blackgrass (Alopecurus myosuroides); assay: Test A postemergence, blackgrass; conditions: 0 to 100 scale (0 no effect, 100 complete control)
Summary of the method: as §1

[14] = test system: galium (catchweed bedstraw, Galium aparine); assay: Test A postemergence, galium; conditions: 0 to 100 scale (0 no effect, 100 complete control)
Summary of the method: as §1

[15] = test system: wheat (Triticum aestivum); assay: Test A postemergence, wheat; conditions: 0 to 100 scale (0 no effect, 100 complete control)
Summary of the method: as §1

corn (Zea mays) = assay: Test A postemergence, corn; conditions: 0 to 100 scale (0 no effect, 100 complete control)
Summary of the method: as §1

rice (Oryza sativa) = assay: Test B flooded paddy test, rice; conditions: applied to paddy water, visual rating after 13 to 15 days, scale 0 (no effect) to 100 (complete control)
Summary of the method: (§2)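 Flooded 3 cm over soil; compound into paddy water; depth kept constant. Greenhouse 13–15 d.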

[16] = test system: sedge, umbrella (small-flower umbrella sedge, Cyperus difformis); assay: Test B flooded paddy test, umbrella sedge; conditions: applied to paddy water, visual rating after 13 to 15 days, scale 0 (no effect) to 100 (complete control)
Summary of the method: as §2

[17] = test system: ducksalad (Heteranthera limosa); assay: Test B flooded paddy test, ducksalad; conditions: applied to paddy water, visual rating after 13 to 15 days, scale 0 (no effect) to 100 (complete control)
Summary of the method: as §2

[18] = test system: barnyardgrass (Echinochloa crus-galli); assay: Test B flooded paddy test, barnyardgrass; conditions: applied to paddy water, visual rating after 13 to 15 days, scale 0 (no effect) to 100 (complete control)
Summary of the method: as §2

[19] = 125 g ai/ha, visual injury, approximately 10 days
[20] = 500 g ai/ha, visual injury, approximately 10 days

Structure (SMILES)	Plant response rating, Barnyardgrass ([1]; 125 g ai/ha)	Plant response rating, Barnyardgrass ([1]; 500 g ai/ha)	Plant response rating, Kochia (kochia (Kochia scoparia) [2]; 125 g ai/ha)	Plant response rating, Kochia (kochia (Kochia scoparia) [2]; 500 g ai/ha)	Plant response rating, Ragweed ([3]; 125 g ai/ha)	Plant response rating, Ragweed ([3]; 500 g ai/ha)	Plant response rating, Ryegrass, Italian ([4]; 125 g ai/ha)	Plant response rating, Ryegrass, Italian ([4]; 500 g ai/ha)	Plant response rating, Foxtail, Giant ([5]; 125 g ai/ha)	Plant response rating, Pigweed ([6]; 125 g ai/ha)	Plant response rating, Barnyardgrass [7, 19]	Plant response rating, Kochia (kochia (Kochia scoparia) [8]; [19])	Plant response rating, Ragweed [9, 19]	Plant response rating, Ryegrass, Italian [10, 19]	Plant response rating, Foxtail, Giant [11, 19]	Plant response rating, Pigweed [12, 19]	Plant response rating, Blackgrass [13, 19]	Plant response rating, Galium [14, 19]	Plant response rating, Wheat [15, 19]	Plant response rating, Corn (corn (Zea mays); [19])	also measured
O=C1NCC(c2cccc(OCC3OCCO3)c2)C1C(=O)Nc1ccccc1C(F)(F)F (stereo not drawn) [Compound 5]	0	50	0	0	0	0	0	0	30	0	0	0	0	20	20	0	0	0	0	0	Plant response rating, Foxtail, Giant ([5]; 500 g ai/ha): 90; Plant response rating, Pigweed ([6]; 500 g ai/ha): 30; Plant response rating, Barnyardgrass [7, 20]: 20; Plant response rating, Kochia (kochia (Kochia scoparia) [8]; [20]): 0; Plant response rating, Ragweed [9, 20]: 0; Plant response rating, Ryegrass, Italian [10, 20]: 20; Plant response rating, Foxtail, Giant [11, 20]: 50; Plant response rating, Pigweed [12, 20]: 0; Plant response rating, Blackgrass [13, 20]: 0; Plant response rating, Galium [14, 20]: 0; Plant response rating, Wheat [15, 20]: 0; Plant response rating, Corn (corn (Zea mays); [20]): 0; Plant response rating, Rice (Flood) (rice (Oryza sativa); 250 g ai/ha): 0; Plant response rating, Sedge, Umbrella (Flood) ([16]; 250 g ai/ha): 0; Plant response rating, Ducksalad (Flood) ([17]; 250 g ai/ha): 65; Plant response rating, Barnyardgrass (Flood) ([18]; 250 g ai/ha): 0
O=C1NCC(c2cccc(OCc3ccccc3)c2)C1C(=O)Nc1ccccc1F (stereo not drawn) [Compound 63]	0	0	0	0	0	0	0	0	0	0	0	0	0	0	0	0	0	0	0	0	Plant response rating, Foxtail, Giant ([5]; 500 g ai/ha): 0; Plant response rating, Pigweed ([6]; 500 g ai/ha): 0; Plant response rating, Barnyardgrass [7, 20]: 0; Plant response rating, Kochia (kochia (Kochia scoparia) [8]; [20]): 0; Plant response rating, Ragweed [9, 20]: 0; Plant response rating, Ryegrass, Italian [10, 20]: 0; Plant response rating, Foxtail, Giant [11, 20]: 0; Plant response rating, Pigweed [12, 20]: 0; Plant response rating, Blackgrass [13, 20]: 0; Plant response rating, Galium [14, 20]: 0; Plant response rating, Wheat [15, 20]: 0; Plant response rating, Corn (corn (Zea mays); [20]): 0; Plant response rating, Rice (Flood) (rice (Oryza sativa); 500 g ai/ha): 0; Plant response rating, Sedge, Umbrella (Flood) ([16]; 500 g ai/ha): 0; Plant response rating, Ducksalad (Flood) ([17]; 500 g ai/ha): 35; Plant response rating, Barnyardgrass (Flood) ([18]; 500 g ai/ha): 0
O=C1NCC(c2cccc(OCc3ccco3)c2)C1C(=O)Nc1ccccc1F (stereo not drawn) [Compound 10]	0	0	0	0	0	0	0	0	0	0	10	0	0	0	0	0	0	0	0	0	Plant response rating, Foxtail, Giant ([5]; 500 g ai/ha): 0; Plant response rating, Pigweed ([6]; 500 g ai/ha): 0; Plant response rating, Barnyardgrass [7, 20]: 60; Plant response rating, Kochia (kochia (Kochia scoparia) [8]; [20]): 0; Plant response rating, Ragweed [9, 20]: 0; Plant response rating, Ryegrass, Italian [10, 20]: 0; Plant response rating, Foxtail, Giant [11, 20]: 30; Plant response rating, Pigweed [12, 20]: 0; Plant response rating, Blackgrass [13, 20]: 0; Plant response rating, Galium [14, 20]: 0; Plant response rating, Wheat [15, 20]: 0; Plant response rating, Corn (corn (Zea mays); [20]): 0; Plant response rating, Rice (Flood) (rice (Oryza sativa); 250 g ai/ha): 0; Plant response rating, Sedge, Umbrella (Flood) ([16]; 250 g ai/ha): 40; Plant response rating, Ducksalad (Flood) ([17]; 250 g ai/ha): 60; Plant response rating, Barnyardgrass (Flood) ([18]; 250 g ai/ha): 0
O=C1NCC(c2cccc(CN3CCOCC3)c2)C1C(=O)Nc1cccc(F)c1F (single isomer, unassigned) [Compound 90]	0	–	0	–	0	–	0	–	0	0	0	0	0	0	0	0	0	0	0	0	Plant response rating, Barnyardgrass ([1]; 31 g ai/ha): 0; Plant response rating, Kochia (kochia (Kochia scoparia) [2]; 31 g ai/ha): 0; Plant response rating, Ragweed ([3]; 31 g ai/ha): 0; Plant response rating, Ryegrass, Italian ([4]; 31 g ai/ha): 0; Plant response rating, Foxtail, Giant ([5]; 31 g ai/ha): 0; Plant response rating, Pigweed ([6]; 31 g ai/ha): 0; Plant response rating, Barnyardgrass ([7]; 31 g ai/ha): 0; Plant response rating, Kochia (kochia (Kochia scoparia) [8]; 31 g ai/ha): 0; Plant response rating, Ragweed ([9]; 31 g ai/ha): 0; Plant response rating, Ryegrass, Italian ([10]; 31 g ai/ha): 0; Plant response rating, Foxtail, Giant ([11]; 31 g ai/ha): 0; Plant response rating, Pigweed ([12]; 31 g ai/ha): 0; Plant response rating, Blackgrass ([13]; 31 g ai/ha): 0; Plant response rating, Galium ([14]; 31 g ai/ha): 0; Plant response rating, Wheat ([15]; 31 g ai/ha): 0; Plant response rating, Corn (corn (Zea mays); 31 g ai/ha): 0; Plant response rating, Rice (Flood) (rice (Oryza sativa); 250 g ai/ha): 0; Plant response rating, Sedge, Umbrella (Flood) ([16]; 250 g ai/ha): 0; Plant response rating, Ducksalad (Flood) ([17]; 250 g ai/ha): 0; Plant response rating, Barnyardgrass (Flood) ([18]; 250 g ai/ha): 0
